According to patent US20260325485A1, “COMPOSITIONS AND METHODS FOR TREATING PANCREATITIS” (The United States Government as represented by the …, priority 2022, published 2026):

What was measured:
[1] = system: muscles; settings: prodrug activated in the liver; cited from earlier work
[2] = system: cerulein pancreatitis (CER-AP); test: Drug treatment of cerulein pancreatitis (CER-AP) in WT mice; format: in vivo, mouse; settings: WT mice treated with simvastatin or BemA
Description: (§1) FIGS. 10A-10N show deranged cholesterol metabolism causes acinar cell damage, while its normalization ameliorates experimental pancreatitis. (A-D) Cholesterol content and trypsin activity were measured (per mg protein) in WT mouse acinar cells incubated for 1 hour without and with methyl-β-cyclodextrin (MCD; 10 mM) or cholesterol-loaded MCD (MCD-Chol; 200 μg/mL), in the presence or absence of 100 nM CCK. Values are expressed relative to those in cells without MCD/MCD-Chol. (E-J) WT mice received daily i.p. injections of the LXR agonist T0901317 (T09), simvastatin (Sim; 20 mg/kg each), or vehicle. On day 4, mice were subjected to CER-AP and pancreata collected for analyses (see also FIG. 20). Cholesterol content (E), trypsin activity (F), and pancreas histopathology (H&E staining; G) were measured. (H, I, L, and N) IB analysis of markers/mediators of autophagy (LC3, p62), ER stress (CHOP, GRP-78), and mitophagy (Parkin). Ub, ubiquitylated proteins. (J) Mitochondrial fragmentation was assessed by immunostaining for Tom20, as detailed in FIG. 7G. (K and L) Mouse acinar cells were treated for 16 hours with LDL (30 μg/mL) or the combination of LDL and 10 μM U18666A. (M and N) Mice received injections of U18666A as detailed in FIG. 9B. Pancreas histopathology (H&E staining; M) and levels of autophagy markers/mediators (N) were measured. Each symbol in A-F and I represents an individual mouse or cell preparation. Values are mean±SEM from 3 to 7 mice or cell preparations per condition. ^§ P<0.05, ^§§ P<0.01 vs. control cells (without MCD/MCD-Chol). ***P<0.001 vs. saline-treated mice. ^#P<0.05, ^##P<0.01, ^###P<0.001 vs. CER-AP alone (no inhibitors). Significance was determined by 2-tailed Student's t test (A-D) or 1-way ANOVA followed by Tukey's multiple comparison test (E, F, and I). Scale bars: 10 μm.
FIGS. 20A-20C show simvastatin improves cerulein pancreatitis. Mice received daily i.p. injections of simvastatin (Sim; 20 mg/kg) or vehicle (see FIG. 10), and on day 4 were subjected to cerulein pancreatitis (CER-AP). (A) Pancreas histopathology (H&E staining; scale: 10 μm). (B) IB analysis of markers/mediators of autophagy (LC3, p62), ER stress (CHOP), and the MLN64/STARD3 protein mediating cholesterol transfer from LE/Ly to mitochondria. Each IB lane represents an individual mouse; ERK1/2 is the loading control. […] Ub, ubiquitylated proteins. (C) Pancreatitis responses. Values are mean±SEM from 7-13 mice for each condition. ***p<0.001 vs saline control. ^###p<0.001 vs CER-AP alone (no simvastatin). Significance was determined by 1-way ANOVA followed by Tukey's multiple comparisons test.
(§2) FIGS. 25A-25C show reducing cholesterol overload greatly ameliorates experimental pancreatitis. CER-AP responses were measured in (A) AclyAac or (C) WT mice treated with simvastatin or bempedoic acid (BemA). (B) Acinar cells were transfected with ACLA (or mock) siRNA and subjected to ex-vivo CCK-AP. Each symbol represents an individual mouse or cell preparation. Values are mean±SE. **p<0.01, ***p<0.001 vs saline treated control mice (or mock transfection); #p<0.05, ##p<0.01, ###p<0.001 vs CER/CCK-AP in control mice (i.e. without inhibitors) or cells.
Cerulein-induced (CER-AP) and L-arginine induced (Arg-AP) acute pancreatitis models were performed in 12-week-old C57BL/6 mice that received 7 hourly i.p. injections of 50 μg/kg cerulein or 3 hourly i.p. injections of 3.3 g/kg Arg; controls received physiologic saline injections. Mice were euthanized for analyses 7 hours after the first cerulein or 24 hours after the first Arg injection. Choline deficient, ethionine-supplemented (CDE) pancreatitis was induced in young (~5-weeks old) female mice fed either CDE or control diet. Mice were euthanized 72 hours after the diet initiation. These models have been described in detail (1-7).
12-week-old WT mice were subjected for 4 consecutive days to daily i.p. injections of 20 mg/kg simvastatin (8,9) or 20 mg/kg T0901317 (10); or 10 mg/kg U18666A for 15 days (11). […]

[3] = system: CER/CCK-AP; test: Effect of simvastatin and BemA in CER/CCK-AP (mouse and ex-vivo model)
Description: as §2
(§3) FIGS. 26A-26D preventing cholesterol overload ameliorates ex-vivo pancreatitis. Mouse pancreatic acinar cells were incubated (A, B) with simvastatin (4 μM, 3 h) or (C, D) cholesterol chelator, methyl-β-cyclodextrin (MCD; 10 mM, 1 h) and then subjected to CCK-AP for 1 (D) or 3 h (A, B). Cholesterol content (A, C) necrosis (B), and trypsin activity (D) were measured. Each symbol represents an individual cell preparation. Values are mean±SEM*p<0/05, **p<0.01 vs control; #p<0.05 ##p<0.01; vs CCK, no inhibitor.
Cholesterol metabolism is disrupted in pancreatitis as a result of lysosomal/autophagy dysfunction. Preventing acinar cell cholesterol overload with simvastatin alleviates AP in one experimental model (CER-AP). As discussed above, lysosomal/autophagy dysfunction is associated with both experimental and human pancreatitis.^6, 7, 9, 13, 17 However, until a recent publication^13 there was very little known on cholesterol metabolism in healthy pancreas, its changes in experimental and human pancreatitis, and role in disease severity. Further, effects of statins and other cholesterol-lowering drugs in pancreas, and the underlying mechanisms, have not been explored. […] This, in turn, stimulates a compensatory increase in cholesterol synthesis, further exacerbating cholesterol overload. It was further shown^13 that inhibition of cholesterol synthesis with simvastatin reduced acinar cell cholesterol overload and the severity of pancreatitis induced with supramaximal cerulein (CER), an ortholog of the hormone cholecystokinin-8 (CCK). The findings^13 reveal a previously unrecognized pathogenic role of cholesterol dysregulation in pancreatitis and indicate normalizing cholesterol metabolism as a novel therapeutic approach for disease treatment.
In summary, the published^13 and current data (FIGS. 23-26) reveal that disruption of acinar cell cholesterol metabolism is a common feature in models of experimental pancreatitis and also prominent in human disease. The key manifestation of cholesterol dyshomeostasis in pancreatitis is acinar cell cholesterol overload. […]

[4] = system: pancreas; settings: pharmacologic autophagy enhancer; cited from earlier work
[5] = system: mouse acinar cells; settings: cited from earlier work
[6] = system: trypsin; test: Trypsin activity in WT mouse acinar cells without and with CCK; format: cell-based; settings: MCD 10 mM, 1 hour, 100 nM CCK
Description: as §1, with “(K and L) Mouse acinar cells were treated for 16 hours with LDL (30 μg/mL) or the combination of LDL and 10 μM U18666A. (M and N) Mice received injections of U18666A as detailed in FIG. 9B.” left out, “Each symbol in A-F and I represents an individual mouse or cell preparation. Values are mean±SEM from 3 to 7 mice or cell preparations per condition. ^§ P<0.05, ^§§ P<0.01 vs. control cells (without MCD/MCD-Chol). ***P<0.001 vs. saline-treated mice. ^#P<0.05, ^##P<0.01, ^###P<0.001 vs. CER-AP alone (no inhibitors).” left out, “Scale bars: 10 μm.” left out

[7] = system: mouse pancreatic acinar cells; test: Ex-vivo CCK-AP in mouse pancreatic acinar cells treated with simvastatin or MCD; format: cell-based; settings: simvastatin 4 μM, 3 h or MCD 10 mM, 1 h
Description: as §3
(§4) Ex vivo pancreatitis models were performed on mouse and human acinar cells, and human pancreas slices by incubation with supramaximal CCK (100 nM) or carbachol (1 mM), as described previously (80, 81).
(§5) Activities of cathepsin (Cat) B and L, caspase-3, trypsin, and lysosomal acid lipase (LAL) were measured in pancreatic tissue or cell homogenates and subcellular fractions with fluorogenic assays using substrates specific for CatB (Z-Arg-Arg-AMC), CatL (Z-Phe-Arg-AMC), caspase-3-like ([…]), trypsin (Boc-Gln-Ala-Arg-AMC), as previously described (1-4, 6, 7); and for LAL (4-methylumbelliferyl oleate), as in (17). In measurements of CatL activity, the assay buffer also contained 50 μM CA-074me, a CatB inhibitor. LAL activity was measured in the absence and presence of the LAL inhibitor lalistat (100 μM) as the difference between these values (17).
(§6) Total cholesterol content was measured with Cholesterol Assay kit per manufacturer's instructions. Samples of mouse pancreas and liver, cell pellet homogenates, subcellular fractions, isolated mitochondria, and serum were diluted in the reaction buffer containing cholesterol probe and incubated at 37° C. for 1 h in the dark. To measure total cholesterol, the samples were subjected to digestion with cholesterol esterase. To measure non-esterified cholesterol, the esterase was omitted from the assay.

[8] = system: mouse acinar cells; test: Total cholesterol content of mouse acinar cells (ex vivo pancreatitis models or cholesterol chelator); format: cell-based; settings: Gnptab−/− acinar cells
Description: FIGS. 8A-8M show derangement of cholesterol metabolism in experimental pancreatitis. Characteristics of cholesterol metabolism were measured, as detailed in FIGS. 4A-4R, in pancreas of WT mice subjected to pancreatitis induced with cerulein (CER-AP), L-arginine (Arg-AP), or CDE diet (CDE-AP) (A, B, and E-G); ex vivo pancreatitis induced in WT mouse (C and I-M) or human acinar cells (D) with 100 nM CCK (CCK-AP) or 1 mM carbachol; and isolated pancreatic mitochondria (H). (B) Cholesterol ester (CE) heatmap; each column represents an individual mouse. (F) IB analysis of the indicated proteins. (G) LAL activity was measured by a fluorogenic assay (n=6 mice per condition). (H) Cholesterol content was measured by enzymatic assay. (I-M) Filipin colocalization with indicated proteins was quantified as detailed in FIGS. 2A-2L. Each symbol in A, C-E, and H represents an individual mouse, or cell or mitochondria preparation (n=3-15 per condition). Each symbol in J, K, and M corresponds to 20-30 cells in a different field (n=10-20 fields from 3 cell preparations per condition). Values are mean±SEM. *P<0.05, **P<0.01, ***P<0.001 vs. the same parameter in control/untreated pancreas, acinar cells or isolated mitochondria. Significance was determined by 2-tailed Student's t test (B, E, H, J, K, and M) or 1-way ANOVA followed by Tukey's multiple comparison test (A, C, and D). Scale bars: 10 μm.
Parameters of cholesterol metabolism were measured in (A, B, E, F) pancreas of mice subjected to pancreatitis induced with cerulean (CER-AP), L-arginine (Arg-AP), or combination of EtOH+palmitoleic acid (EtOH+POA); and (C) ex-vivo models on mouse and human acinar cells treated for 1 h with 100 nM CCK, […] or 500 μM TLCS. In (A), each column in CE heatmap represents an individual mouse. (B, C) Total cholesterol content was measured with cholesterol assay kit (Abcam, ab65390). […] Each symbol corresponds to 20-30 cells in each of 8 high-expression (qPCR) of proteins regulating cholesterol synthesis (4 mice/group). (B-D) Each symbol represents an individual animal or cell preparation. (A-D, F) Values are mean±SE (*p<0.05, **p<0.01, ***p<0.001 vs saline or control). Signficance was determined by 2-tailed student's t test.
as §4, §6
Fluorescence intensity (for cholesterol) and absorbance (for TAG) were measured in a Tecan microplate reader. Each measurement was in duplicate, and the values were normalized per mg total protein in the sample.

[9] = system: trypsin; test: Trypsin activity in Gnptab−/− acinar cells; format: cell-based, mouse; settings: Gnptab−/− acinar cells, cholesterol chelator MCD
Description: FIGS. 6A-6R show mechanisms mediating increased trypsin activity in Gnptab−/− pancreas. Trypsin activity and its regulation were analyzed in pancreatic (A, C, and D) tissue, (B and P-R) acinar cells, (E-H and O) lobules, and (I-N) subcellular fractions. In B, acinar cells were incubated for 3 hours without and with 20 nM BafAl or 50 μM CatB inhibitor CA-074Me; in P-R, with the cholesterol chelator methyl-β-cyclodextrin (MCD) at the indicated concentrations. In E-H, pancreatic lobules were double stained for TAP and LC3 or LAMP2; in O, for TAP and filipin. Quantitative colocalization analysis was done as detailed in FIG. 2. Each symbol in A, B, J-N, Q, and R represents an individual mouse or cell preparation (n=3-8 per condition). Each symbol in D, G, and H corresponds to 20 to 30 cells in a different field (n=9-20 fields from 3 WT and 3 KO mice or lobule preparations). Values are mean±SEM. **P<0.01, ***P<0.001 vs. WT tissue/lobules (A, G, and H) or corresponding WT subcellular fraction (K and M). ##P<0.01 vs. no inhibitors (B) or MCD (Q and R). ††P<0.01, †††P<0.001 vs. the other two fractions (L and N). Significance was determined by 2-tailed Student's t test (A, G, and H) or 1-way ANOVA followed by Tukey's multiple comparison test (B, K-N, Q, and R). Scale bars: 10 μm.
as §5

## CC(C)(CCCCCC(O)CCCCCC(C)(C)C(=O)O)C(=O)O [BemA, Bempedoic acid]
[1]
  myotoxicity: minimal
[2]
  cholesterol overload in CER-AP (FIG. 25C): decreased
  inflammation in CER-AP (FIG. 25C): ameliorated
  necrosis in CER-AP (FIG. 25C): ameliorated
  trypsin activity in CER-AP (FIG. 25C): ameliorated
[3]
  cholesterol overload, CER/CCK-AP: prevented
  disease severity, CER/CCK-AP: reduced

## OC[C@H]1O[C@H](O[C@H]2O[C@H](CO)[C@@H](O)[C@H](O)[C@H]2O)[C@H](O)[C@@H](O)[C@@H]1O [trehalose]
[4]
  pancreas injury in AP models: largely prevented

## methyl-β-cyclodextrin [MCD]
[5]
  usual cholesterol-reducing MCD concentration: 1 to 5 mM
[6]
  CCK-induced trypsinogen activation: reduced
[7]
  cholesterol overload in ex-vivo CCK-AP: Reducing
  extent of necrosis in ex-vivo CCK-AP: greatly decreased
  trypsinogen activation in ex-vivo CCK-AP: greatly decreased
[8]
  Resistance of Gnptab−/− acinar cells to MCD: highly resistant
[8]; only at this concentration
  MCD concentration at which cholesterol-reducing effect is evident: 50 mM
[9]
  Trypsin activity, KO cells, MCD: greatly decreased
